From US20260315763A1, “OLFACTORY DELIVERY OF THERAPEUTIC PEPTIDES” (Rocket Science Health Corp., priority 2023, published 2026) come the findings set out here.

The test system of data set [1] is anterior division of the cingulate gyrus. Kind of data set: fMRI region of interest analysis: mean ALFF in anterior division of the cingulate gyrus. Conditions: both olfactory delivery and spray conditions; 80 IU; baseline, 15, 60 min. The class given is in vivo, human (participants). The text has this: (§1) Participants: Eight participants (male and female, ages 23-30) were recruited for this study from the New Brunswick area. Participants reported no history of abnormal nasal or sinus symptoms, insulin use, diabetes, metabolic disorder, or any complicating medical conditions, or contraindications for nasal cannulation, MRI or venous blood sampling. Additionally, participants reported no previous diagnosis of SARS-COV-2 with symptoms of anosmia. Study procedures were approved by Horizon Health Network's Human Research Protection Program prior to recruitment of participants.
(§2) Study Design: An open-label 4-arm crossover study design was used to understand the insulin brain effects between the focal deposition (cannula) and the standard nasal mister method. Undiluted solution of 80 IU (0.16 ml) prepared from U500 insulin was delivered to the olfactory region (condition A). Under this condition, 40 IU (0.08 ml) of human insulin was delivered directly by an ENT physician to each nostril. For condition B, undiluted solution containing 15% MucoLox (a thickening agent) and 80 IU (0.16 ml) insulin was delivered to the olfactory region. For condition C, a total of 1.6 ml insulin and sterile water mixture was prepared for Nasal spray delivery. The nasal spray bottle contained 80 IU of U500 insulin mixed with a sterile water solution. […]

Data set [2] concerns inferior temporal gyrus. Kind of data set: fMRI region of interest analysis: mean ALFF in inferior temporal gyrus. The data set is classed as in vivo, human (participants). Conditions: both olfactory delivery and spray conditions; 80 IU; baseline, 15, 60 min.
Description: as §1, §2

Data set [3] has as its system prefrontal and posterior brain regions. Kind of data set: fMRI control analysis: ALFF in spray condition across Blocks 1 and 2. Conditions: insulin without MucoLox, 80 IU. The data set is classed as in vivo, human (participants).
Description: as §1, §2

The subject of data set [4] is prefrontal brain activity. Put plainly: Insulin delivery fMRI analysis: ALFF, prefrontal brain activity. The data set is classed as in vivo, human (participants).
Description: In the in-human studies below, the device was tuned to eject the fluid at a specific velocity. This velocity was chosen based on the viscosity of the fluid and the studies described in Example 1, to maximize the extent of laminar flow.
as §1
Study Design: An open-label 4-arm crossover study design was used to understand the insulin brain effects between the focal deposition (cannula) and the standard nasal mister method. Undiluted solution of 80 IU (0.16 ml) prepared from U500 insulin was delivered to the olfactory region (condition A). Under this condition, 40 IU (0.08 ml) of human insulin was delivered directly by an ENT physician to each nostril. For condition B, undiluted solution containing 15% MucoLox (a thickening agent) and 80 IU (0.16 ml) insulin was delivered to the olfactory region. For condition C, a total of 1.6 ml insulin and sterile water mixture was prepared for Nasal spray delivery. The nasal spray bottle contained 80 IU of U500 insulin mixed with a sterile water solution. The spray was delivered over 4 minutes with two puffs per nostril every minute. Condition sequences AC, CA, BC, and CB comprise the 4 arms of the study.
Participants were randomly assigned to one of two blocks. In Block 1, participants were randomly assigned by alternating sequence to one of the A arms (AC or CA). […] In Block 2, participants were randomly assigned by alternating sequence to one of the B arms (BC or CB). Block 2 participants did receive MucoLox in the cannula session. For a given participant, appointments for each condition were scheduled at a minimum of 14 days apart to ensure no carry-over effects from the previous condition.
MRI Acquisition: Magnetic resonance imaging was completed at an imaging clinic in Moncton (Moncton MRI) using standard sequences on a 3T Siemens Skyra, VD13. Anatomical T1-weighted MPRAGE images were acquired for each subject [TR=1900 ms, TE=2.99 ms, Flip Angle=9 degrees, Voxel Size=0.45×0.45×0.9 mm, Dimensions=448×512×160]. Resting state functional T2*-weighted BOLD images [TR=2600 ms, TE=30 ms, Flip Angle=90 degrees, Voxel Size=3×3×3 mm, Dimensions=80×80×45] were acquired for each subject at baseline and again 15 minutes and 60 minutes following intranasal delivery of insulin. Each resting state functional scan consisted of 180 volumes acquired over the course of 7 minutes and 48 seconds.
MRI Preprocessing: MRI data was preprocessed using fMRIPrep. Preprocessing steps of the anatomical images included correction for intensity nonuniformity, skull stripping, segmentation of gray matter, white matter, and cerebrospinal fluid (CSF) masks, and normalization to MNI template space. Preprocessing steps for the functional images included slice time correction, head motion correction (calculation of framewise displacement and 6-degrees of motion parameters and their temporal derivatives), registration to the subjects T1w image, normalization to MNI template space, and spatial smoothing (3 mm FWHM Gaussian kernel).
fMRI Denoising: Functional MRI data were denoised using a standard denoising pipeline implemented in the CONN Toolbox (v 22.a) and SPM (v 12.7). […]

A short description of data set [5]: Visualizing olfactory cleft delivery with methylene blue (nasal endoscopy). The data set is classed as in vivo, human (healthy participants). The text has this:
The primary goal of these studies is to visualize delivery to the olfactory cleft (first with technetium-99, and then with methylene blue). The device was tuned to eject the fluid at a specific velocity. This velocity was chosen based on the viscosity of the fluid and the studies in Example 1, to maximize the extent of laminar flow.
Visualizing Olfactory Cleft Delivery with Methylene Blue
Participants: Five healthy participants (ages 19+) with no history of sinonasal symptoms and no evidence of nasal inflammation were recruited for this study. Prior to recruitment of participants study procedures were approved by Providence Health Care research ethics board, (British Columbia, Canada) and conducted under Health Canada Investigational Testing Authorization #314993. All participants were assessed by a licensed otolaryngologist physician to confirm their eligibility. Participants completed two study visits during which a licensed otolaryngologist physician administered 0.1 mL of the visual dye tracer, methylene blue.
Study Design: During the first visit, the methylene blue was administered using the Laminar Fluid Ejection method (1.5 mm cannula; velocity=4.5 m/s). During the second visit, methylene blue was administered using a conventional nasal spray device (Pharma systems Item #10272, UPC: 063636802714). The Pharma systems spray device was used in these experiments because it was the device normally used by the compounding pharmacy for intranasal delivery. It was the device patients and clinicians were used to at this clinic.
Following delivery, the physician used a nasal endoscope to image the deposition of methylene blue to the olfactory cleft at up to five time points (1, 5, 8, 12, and 15 minutes following delivery). From each image, the physician judged whether at least 50% of the methylene blue fluid was delivered to the olfactory cleft. If <50% of the methylene blue was judged to have deposited in the olfactory cleft, imaging was stopped and that session's trial was completed.

“Also recorded” adds a separate entry of the source.

Consider “insulin: Undiluted solution of 80 IU (0.16 ml) prepared from U500 insulin; spray: 80 IU of U500 insulin mixed with a sterile water solution”, for which the “ALFF over time, anterior division of the cingulate gyrus” value in data set [1] was “decreased over time; also recorded: decrease in ALFF in both the olfactory delivery and spray conditions”. Besides, the “ALFF over time, inferior temporal gyrus” value in data set [2] is recorded as “increased over time; also recorded: increase in ALFF for both conditions”. Further, the “brain activity, Block 2 compared to Block 1 participants” value in data set [3] (15 minutes) was “increased brain activity in prefrontal cortex and reduced brain activity in posterior brain regions”; in data set [3] (60 minutes), “decreased brain activity in select prefrontal and posterior regions”. The “prefrontal brain activity compared to baseline” value in data set [4] (80 IU intranasal insulin, scans after receiving insulin (15 and 60 minutes)) is listed as “decreased prefrontal brain activity compared to baseline scans”. In data set [4] (80 IU, olfactory delivery device vs traditional spray mister), the “decrease in prefrontal brain activity, olfactory delivery device compared to spray mister” value was “larger and longer-lasting decrease in prefrontal brain activity”. In addition, in data set [4] (Block 1 (insulin without MucoLox), 80 IU), the “prefrontal deactivation, olfactory delivery device compared to spray device” value was “greater and more sustained”. For the same compound, the “reduction in prefrontal brain activity, olfactory delivery compared to spray” value in data set [4] (Block 1, 80 IU, 60 minutes) is “even more intense in the olfactory delivery condition”. In addition, the “change in prefrontal brain activity compared to baseline” value is reported as “reduction in brain activity in prefrontal regions” in data set [4] (Block 1, both spray and olfactory delivery device, 80 IU, 15 minutes); “this reduction is greater in the absence of MucoLox” in data set [4] (Block 1, olfactory delivery device, 80 IU, 15 minutes, compared to insulin with MucoLox (Block 2)); “small decrease of prefrontal brain activity” in data set [4] (Block 2, spray mister, 80 IU, 15 minutes); “remained deactivated” in data set [4] (Block 2, spray mister, 80 IU, 60 minutes). Moreover, the “reduction in prefrontal brain activity, spray condition compared to olfactory delivery with MucoLox” value in data set [4] (Block 2, spray, 80 IU, 60 minutes) was “more intense in the spray condition”. Further, in data set [4] (delivery of insulin using the method disclosed (olfactory delivery)), the “duration of reduction of brain activity after delivery” value is “at least 60 minutes”. Also, the “deactivation of the prefrontal cortex, olfactory delivery device compared to spray mister” value in data set [4] (intranasal delivery of insulin, 80 IU, overall conclusion) is “deactivation of the prefrontal cortex to a greater degree”. In data set [4] (olfactory delivery device, 80 IU), the “deactivation of prefrontal cortex, insulin alone compared to insulin with MucoLox” value is “greater, longer lasting deactivation of prefrontal cortex”. The “reduction in prefrontal brain activity, Block 1 compared to Block 2 (MucoLox)” value in data set [4] (olfactory delivery device, 80 IU, 60 minutes) is given as “more intense in Block 1 participants who did not receive MucoLox”.
`CN(C)c1ccc2nc3ccc(=[N+](C)C)cc-3sc2c1` [Methylene Blue, methylene blue]: the “participants with successful delivery of >50% of the methylene blue to the olfactory cleft” value in data set [5] (Laminar Fluid Ejection method, 0.1 mL) is recorded as “Four of the five participants”. Further, the “delivery of at least 50% of the dye to the olfactory cleft” value in data set [5] (conventional nasal spray, each of the five participants) is given as “failed to deliver at least 50% of the dye to the olfactory cleft”. In addition, the “Olfactory Residence Time” value is 15 min in data set [5] (participant 2.01, LFE Method, 0.1 mL, 1 attempt); 0 min in data set [5] (participant 2.01, Nasal Spray, 0.1 mL, 1 attempt); 8 min in data set [5] (participant 2.02, LFE Method, 0.1 mL, 2 attempts); 0 min in data set [5] (participant 2.02, Nasal Spray, 0.1 mL, 1 attempt); 5 min in data set [5] (participant 2.03, LFE Method, 0.1 mL, 1 attempt); 0 min in data set [5] (participant 2.03, Nasal Spray, 0.1 mL, 1 attempt). The “Olfactory Residence Time” value in data set [5] (participant 2.04, LFE Method, 0.1 mL, 5 attempts) was 0 min; in data set [5] (participant 2.04, Nasal Spray, 0.1 mL, 1 attempt), 0 min; in data set [5] (participant 2.05, LFE Method, 0.1 mL, 1 attempt) it was 1 min; in data set [5] (participant 2.05, Nasal Spray, 0.1 mL, 1 attempt) it was 0 min.
